Measured values reported in patent US20210130411A1, “CYCLIC HEXAPEPTIDES COMPOUNDS WITH ANTI-MALARIAL ACTIVITY” (priority 2018, published 2021).
Like-named read-outs stand apart in the source and are kept apart here. Where a SMILES comes first, the peptide text is derived from it. [ ]: non-standard residue; d: D form. The star is where a group is joined. Trt = c1ccc(C(c2ccccc2)(c2ccccc2)*)cc1; Sar = CNCC(=O)O; tBu = CC(C)(C)*

Experiments:
[1] = test system: P. falciparum K1 (chloroquine-resistant strain); assay: microbe, parasite or virus in culture
Protocol: For the in vitro study of the antimalarial activity against P. falciparum K1, this strain originating from Thailand that is resistant to chloroquine and pyrimethamine but sensitive to mefloquine was used. The cultures are naturally asynchronous (65-75% ring stage) and are maintained in continuous log phase growth in RPM11640 medium supplemented with 5% washed human A+erythrocytes, 25 mM HEPES, […] NaHCO3, and AlbuMAXII (lipid-rich bovine serum albumin) (GIBCO, Grand Island, N.Y.) (CM). All cultures and assays are conducted at 37° C. under an atmosphere of 5% CO2 and 5% 02, with a balance of N2.
For drug sensitivity assays, tock drug solutions are prepared in 100% DMSO (dimethylsulfoxide) at 20 mM. The compound is further diluted to the appropriate concentration using complete medium RPM11640 supplemented with 15 nM cold hypoxanthine and AlbuMAXII. Assays are performed in sterile 96-well microtitre plates, each plate contains […] of parasite culture (0.5% parasitemia, 2.5% hematocrit). Each drug is tested in triplicate and parasite growth is compared to control and blank (uninfected erythrocytes) wells. After 24 h of incubation at 37° C., 3.7 Bq of [3H]hypoxanthine is added to each well. Cultures are incubated for a further 24 h before they are harvested onto glass-fiber filter mats. The radioactivity is counted using a Wallac Microbeta 1450 scintillation counter. […] The percentage inhibition is calculated from comparison of blank and control wells, and EC50 values are calculated using Prism™. Screen. The K1 line is used. The compound is diluted threefold over 12 different concentrations with an appropriate starting concentration. The EC50 is determined by a sigmoidal dose-response analysis using Prism™. For each assay, the EC50 value for the parasite line is determined against the known antimalarials chloroquine and artesunate, plus other standard compounds appropriate for the assay.
(§1) were tested in vitro against the intraerythrocytic form of the parasite Plasmodium falciparum K1 (chloroquine-resistant strain) and Plasmodium falciparum 31D7 (chloroquine-sensitive strain). The selectivity index (SI) was determined as the ration between EC50 against murine macrophages or HepG2 cells and the EC50 against P. falciparum.

Plasmodium sp. = conditions: background statement, strain not stated; cited from earlier work
[2] = test system: Plasmodium falciparum 3D7 (chloroquine-sensitive strain); assay: microbe, parasite or virus in culture; type: cell-based
Protocol: For the in vitro study of the antimalarial activity against P. falciparum D7, two stock solutions were prepared: solution A (dilution of powder sample) at 20 mM and solution B at 1 mM (made by dilution of solution A). Next, the compounds were diluted 100-fold (drug solution=10 μM), then, suitable volume of drug solution was transferred in the SYBR GREEN assay plate (final concentration=10-0.15 μM). However, due to the high potency of the samples, the initial concentration was reduced in order to determine the EC50 values. The assay condition included: hematocrit at 2%, initial parasitemia 0.5% and artesunate and pyrimethamine were used as positive control. The fluorescence of each well is measured. The EC50 value of each compound was assessed in at least two independent experiments.
as §1, with “falciparum. In the following Table 1 is shown the results of the EC50 obtained for each of the tested compounds against P. falciparum K1 (P. f. K1) and P. falciparum 3D7 (P. f. 3D7) and the SI calculated.” for “falciparum.”

P. falciparum 3D7 strain = assay: Killing rates assay, P. falciparum 3D7 intraerythrocytic form; type: cell-based, Plasmodium falciparum
Protocol: The assay was performed in P. falciparum 3D7 strain in its intraerythrocytic form. […] Each compound was renewed (washing the parasites and adding culture media and the compound again) after the first 24 hours of treatment.

[3] = test system: murine macrophages or HepG2 cells; assay: Selectivity index: EC50 against murine macrophages or HepG2 cells over EC50 against P. falciparum; type: cell-based; conditions: ratio of EC50 against murine macrophages or HepG2 cells to EC50 against P. falciparum
Protocol: as §1, with “falciparum. In the following Table 1 is shown the results of the EC50 obtained for each of the tested compounds against P. falciparum K1 (P. f. K1) and P. falciparum 3D7 (P. f. 3D7) and the SI calculated.” for “falciparum.”

P. berghei = assay: Anti-malarial activity in vivo in mice inoculated with P. berghei; conditions: 50 mg/Kg oral, 3 consecutive days
[4] = Plasma pharmacokinetics after single oral administration; type: in vivo, male Swiss Albino mice
Protocol: The objective of this study was to investigate the plasma pharmacokinetics of the compound CF-88 in male Swiss Albino mice following a single oral administration. Nine animals were used in this study as Group 1 (PO: 50 mg/kg). Animals were administered with solution formulation of CF-88 in 3% DMSO and RPMI medium via oral route at 50 mg/kg. The blood samples were collected from set of three mice at each time point in labeled micro centrifuge tube containing K2EDTA solution as anticoagulant at 0.25, 0.5, 1, 2, 4, 6, 8, 12 and 24 hr. Plasma samples were separated by centrifugation of whole blood and stored below −70±10° C. until bioanalysis. All samples were processed for analysis by protein precipitation using acetonitrile and analyzed with fit-for-purpose LC-MS/MS method (LLOQ=5.16 ng/mL). Pharmacokinetic parameters were calculated using the non-compartmental analysis tool of Phoenix WinNonlin® (Version 7.0).
For the preparation of the oral formulation accurately weighed 19.93 mg of compound for PO dosing was added in a labeled bottle. The volume 0.112 mL of DMSO was added and vortexed. The volume 3.617 mL of RPMI medium was added and vortexed. The final formulation (5 mg/mL) was vortexed for 2 minutes to get finely suspended formulation.
After preparation of formulations, a volume of 200 μL was aliquoted for analysis. […] Formulations were prepared freshly prior to dosing.
Blood samples (approximately 60 μL) were collected from retro-orbital plexus of three mice at 0.25, 0.5, 1, 2, 4, 6, 8, 12 and 24 hr. Samples were collected into labeled micro-tubes, containing K2EDTA solution (20% K2EDTA solution) as an anticoagulant. Plasma was immediately harvested from the blood by centrifugation at 4000 rpm for 10 min at 4±2° C. and stored below −70° C. until bioanalysis.

P. b. (liver st) = assay: Biological activity in vitro against the hepatic form of the parasite; type: cell-based, P. berghei
[5] = Plasmodium falciparum, K1, read-out: EC50 P. f. K1
[6] = 0 hrs of treatment, compound at 10×EC50
[7] = 24 hrs of treatment, compound at 10×EC50 (CF89 500 nM, SP79 30 nM)
[8] = 48 hrs of treatment, compound renewed after 24 hrs, 10×EC50
[9] = read-out: EC50 P. f. K1, intraerythrocytic form, chloroquine-resistant strain
[10] = intraerythrocytic form, chloroquine-sensitive strain, read-out: EC50 P. f. 3D7
[11] = male, Swiss Albino, mouse, in vivo, po, 50 mg/kg
[12] = male, Swiss Albino, mouse, plasma, PO 50 mg/kg, 12 hrs after administration, read-out: plasma concentration at 12 hrs

Compound: C[C@@H]1CC[C@H]2[C@@H](C)C(=O)O[C@@H]3O[C@@]4(C)CC[C@@H]1[C@]32OO4 [Artemisinine, reference compound]
- EC50 [1, 5]: 20 nM
- EC50 (Plasmodium sp.): 20 nM

Compound: C[C@H]1[C@H](OC(=O)CCC(=O)O)O[C@@H]2O[C@@]3(C)CC[C@H]4[C@H](C)CC[C@@H]1[C@@]24OO3 [Artesunate]
- EC50 [1, 5]: 3 nM
- EC50 ([2]; Plasmodium falciparum, 3D7, read-out: EC50 P. f. 3D7): 5 nM
- Survival % (P. falciparum 3D7 strain; [6]): 100%
- Survival % (P. falciparum 3D7 strain; [7]): 10.01%
- Survival % (P. falciparum 3D7 strain; [8]): 8.59%
- EC50 (Plasmodium sp.): 5 nM

Compound: O=C1C(O)=C([C@H]2CC[C@H](c3ccc(Cl)cc3)CC2)C(=O)c2ccccc21 [Atovaquone]
- Survival % (P. falciparum 3D7 strain; [6]): 100%
- Survival % (P. falciparum 3D7 strain; [7]): 56.55%
- Survival % (P. falciparum 3D7 strain; [8]): 32.02%

Compound: CN1CC(=O)N[C@@H](CSC(c2ccccc2)(c2ccccc2)c2ccccc2)C(=O)N(C)CC(=O)N[C@@H](CSC(c2ccccc2)(c2ccccc2)c2ccccc2)C(=O)N(C)CC(=O)N[C@@H](COC(C)(C)C)C1=O [CF87, Cycle-NMe-Gly-L-Cys(Trt)-NMe-Gly-L-Ser(^t-Bu)-NMe-Gly-L-Cys(Trt)] (cyclo(C(Trt)[Sar]C(Trt)[Sar]S(tBu)[Sar]))
- EC50 ([2]; 3D7 (chloroquine-sensitive strain)): 3.8 nM
- SI [3]: > 12500

Compound: C[C@@H](OC(C)(C)C)[C@@H]1NC(=O)CN(C)C(=O)[C@H](CSC(c2ccccc2)(c2ccccc2)c2ccccc2)NC(=O)CNC(=O)[C@H](CSC(c2ccccc2)(c2ccccc2)c2ccccc2)NC(=O)CN(C)C1=O [CF88, Cycle-NMe-Gly-L-Thr(^t-Bu)-NMe-Gly-L-Cys(Trt)-Gly-L-Cys(Trt)] (cyclo(C(Trt)GC(Trt)[Sar]T(tBu)[Sar]))
- EC90 ([1]; against P. falciparum K1): 1 nM
- EC50 [1, 9]: 0.008 nM
- EC50 [2, 10]: 0.25 nM
- SI [3]: >1 × 10^6
- Days of survival (P. berghei): 25 ± 7 days
- Parasitemia (P. berghei; Day 5): 0.9 ± 0.7
- Parasitemia (P. berghei; Day 7): 1.7 ± 0.3
- Parasitemia (reduction %) (P. berghei; Day 7): (46 ± 10%)
- Parasitemia (P. berghei; Day 9): 6 ± 1
- Parasitemia (reduction %) (P. berghei; Day 9): (33 ± 10%)
- clinical signs after oral administration ([4]; PO 50 mg/kg single dose): all animals were normal without any clinical signs
- t1/2 ([4]; PO 50 mg/kg, plasma, 4, 6, 8 and 12 hr time points considered (r^2 = 0.7325)): 4.93 h
- detected in plasma up to ([4]; PO 50 mg/kg, time after administration): 12 h
- detection in plasma at 24 hrs ([4]; PO 50 mg/kg, LLOQ 5.16 ng/mL): no detection
- AUCinf [4, 11]: 390.71
- AUClast [4, 11]: 314.79
- Cmax [4, 11]: 61.13 ng/mL
- tmax [4, 11]: 2 h
- level at 12 h [4, 12]: 10.8 ng/mL
- level at time molar at 12 h [4, 12]: 10 nM

Compound: C[C@@H](OC(C)(C)C)[C@@H]1NC(=O)CNC(=O)[C@H](CSC(c2ccccc2)(c2ccccc2)c2ccccc2)NC(=O)CNC(=O)[C@H](CSC(c2ccccc2)(c2ccccc2)c2ccccc2)NC(=O)CN(C)C1=O [CF90, Cycle-L-Thr(^tBu)-NMe-Gly-L-Cys(Trt)-Gly-L-Cys(Trt)-Gly] (cyclo(C(Trt)GC(Trt)GT(tBu)[Sar]))
- EC50 [1, 9]: 0.13 nM
- EC50 [2, 10]: 1.4 nM
- SI [3]: >1 × 10^5

Compound: CN1CC(=O)N[C@@H](CSC(c2ccccc2)(c2ccccc2)c2ccccc2)C(=O)N(C)CC(=O)N[C@@H](CSC(c2ccccc2)(c2ccccc2)c2ccccc2)C(=O)N(C)CC(=O)N[C@@H](CCC(=O)O)C1=O [CFfs49.4, Cycle-NMe-Gly-L-Cys(Trt)-NMe-Gly-L-Cys(Trt)-NMe-Gly-L-Glu] (cyclo(C(Trt)[Sar]C(Trt)[Sar]E[Sar]))
- EC50 [1, 9]: 0.2 nM
- EC50 [2, 10]: 12 nM
- SI [3]: >20000
- Days of survival (P. berghei): 23 ± 4 days
- Parasitemia (P. berghei; Day 5): 1.1 ± 0.2
- Parasitemia (P. berghei; Day 7): 1.6 ± 0.2
- Parasitemia (reduction %) (P. berghei; Day 7): (46 ± 6%)
- Parasitemia (P. berghei; Day 9): 4.8 ± 0.5
- Parasitemia (reduction %) (P. berghei; Day 9): (50 ± 4%)

Compound: COC(=O)CC[C@@H]1NC(=O)CN(C)C(=O)[C@H](CSC(c2ccccc2)(c2ccccc2)c2ccccc2)NC(=O)CN(C)C(=O)[C@H](CSC(c2ccccc2)(c2ccccc2)c2ccccc2)NC(=O)CN(C)C1=O [CFfs49.5] (cyclo(C(Trt)[Sar]C(Trt)[Sar]E(OMe)[Sar]))
- EC50 [2, 10]: 5.2 nM
- SI [3]: >40000

Compound: CCN(CC)CCCC(C)Nc1ccnc2cc(Cl)ccc12 (stereo not drawn) [Chloroquine, reference compound]
- EC50 [1, 5]: 470 nM
- Survival % (P. falciparum 3D7 strain; [6]): 100%
- Survival % (P. falciparum 3D7 strain; [7]): 14.13%
- Survival % (P. falciparum 3D7 strain; [8]): 7.04%
- Days of survival (P. berghei): >30 days
- Parasitemia (reduction %) (P. berghei; Day 5 (96 hrs after infection)): (100%)
- Parasitemia (P. berghei; Day 5): 0
- Parasitemia (P. berghei; Day 7): 0
- Parasitemia (reduction %) (P. berghei; Day 7): (100%)
- Parasitemia (P. berghei; Day 9): 0
- Parasitemia (reduction %) (P. berghei; Day 9): (100%)

Compound: CCc1nc(N)nc(N)c1-c1ccc(Cl)cc1 [Pyrimethamine]
- EC50 ([2]; Plasmodium falciparum, 3D7, intraerythrocytic form, chloroquine-sensitive strain, read-out: EC50 P. f. 3D7): 31 nM
- Survival % (P. falciparum 3D7 strain; [6]): 100%
- Survival % (P. falciparum 3D7 strain; [7]): 53.52%
- Survival % (P. falciparum 3D7 strain; [8]): 9.59%

Compound: C[C@@H](OC(C)(C)C)[C@@H]1NC(=O)CN(C)C(=O)[C@H](CSC(c2ccccc2)(c2ccccc2)c2ccccc2)NC(=O)CN(C)C(=O)[C@H](CSC(c2ccccc2)(c2ccccc2)c2ccccc2)NC(=O)CN(C)C1=O [SP79, Cycle-NMe-Gly-L-Thr(^t-Bu)-NMe-Gly-L-Cys(Trt)-NMe-Gly-L-Cys(Trt)] (cyclo(C(Trt)[Sar]C(Trt)[Sar]T(tBu)[Sar]))
- EC50 [1, 9]: 0.7 nM
- EC50 [2, 10]: 1 nM
- SI [3]: >140000
- EC50 (P. b. (liver st)): 18.6 nM
- Survival % (P. falciparum 3D7 strain; [6]): 100%
- Survival % (P. falciparum 3D7 strain; [7]): 83.74%
- Survival % (P. falciparum 3D7 strain; [8]): 57.48%
